# Laboratory results taken from PubChem BioAssay (NCI).
# Values joined by “and” are separate entries in the source; they are usually repeats but may differ in a detail not shown here. Identical values can stand only once.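 Tested at 5 concentrations; 48 h exposure; 96-well plates; endpoints linearly interpolated, else capped at highest concentration. GI50 marks 50% less growth. TGI marks complete inhibition of growth.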
# What was measured:
# Experiment in all cases: NCI-60 cell line screen, 48 h
# 786-0 renal = test system: 786-0 renal
# A498 renal = test system: A498 renal
# A549 NSCLC = test system: A549 NSCLC
# ACHN renal = test system: ACHN renal
# CCRF-CEM leukemia = test system: CCRF-CEM leukemia
# COLO 205 colon = test system: COLO 205 colon
# DLD-1 colon = test system: DLD-1 colon
# DMS 114 small cell lung = test system: DMS 114 small cell lung
# DMS 273 small cell lung = test system: DMS 273 small cell lung
# EKVX NSCLC = test system: EKVX NSCLC
# HCC-2998 colon = test system: HCC-2998 colon
# HCT-116 colon = test system: HCT-116 colon
# HL-60(TB) leukemia = test system: HL-60(TB) leukemia
# HOP-18 NSCLC = test system: HOP-18 NSCLC
# HOP-62 NSCLC = test system: HOP-62 NSCLC
# HOP-92 NSCLC = test system: HOP-92 NSCLC
# HT29 colon = test system: HT29 colon
# K-562 leukemia = test system: K-562 leukemia
# KM12 colon = test system: KM12 colon
# KM20L2 colon = test system: KM20L2 colon
# LOX IMVI melanoma = test system: LOX IMVI melanoma
# LXFL 529 NSCLC = test system: LXFL 529 NSCLC
# M14 melanoma = test system: M14 melanoma
# M19-MEL melanoma = test system: M19-MEL melanoma
# MALME-3M melanoma = test system: MALME-3M melanoma
# MOLT-4 leukemia = test system: MOLT-4 leukemia
# NCI-H226 lung = test system: NCI-H226 lung
# NCI-H23 lung = test system: NCI-H23 lung
# NCI-H522 lung = test system: NCI-H522 lung
# OVCAR-3 ovarian = test system: OVCAR-3 ovarian
# OVCAR-5 ovarian = test system: OVCAR-5 ovarian
# OVCAR-8 ovarian = test system: OVCAR-8 ovarian
# RPMI-8226 leukemia = test system: RPMI-8226 leukemia
# RXF 393 renal = test system: RXF 393 renal
# SF-268 CNS = test system: SF-268 CNS
# SF-295 CNS = test system: SF-295 CNS
# SF-539 CNS = test system: SF-539 CNS
# SK-MEL-2 melanoma = test system: SK-MEL-2 melanoma
# SK-MEL-28 melanoma = test system: SK-MEL-28 melanoma
# SK-OV-3 ovarian = test system: SK-OV-3 ovarian
# SN12C renal = test system: SN12C renal
# SNB-19 CNS = test system: SNB-19 CNS
# SNB-75 CNS = test system: SNB-75 CNS
# SNB-78 CNS = test system: SNB-78 CNS
# SR leukemia = test system: SR leukemia
# SW-620 colon = test system: SW-620 colon
# TK-10 renal = test system: TK-10 renal
# U251 CNS = test system: U251 CNS
# UACC-257 melanoma = test system: UACC-257 melanoma
# UACC-62 melanoma = test system: UACC-62 melanoma
# UO-31 renal = test system: UO-31 renal
# XF 498 CNS = test system: XF 498 CNS
# CAKI-1 renal = test system: CAKI-1 renal
# IGROV1 ovarian = test system: IGROV1 ovarian
# NCI-H460 lung = test system: NCI-H460 lung
# OVCAR-4 ovarian = test system: OVCAR-4 ovarian
# RXF-631 renal = test system: RXF-631 renal
# SK-MEL-5 melanoma = test system: SK-MEL-5 melanoma
# HCT-15 colon = test system: HCT-15 colon
compound,measurement,setting,value
O=C(O)c1c2c(c(C(=O)O)c3ccccc13)-c1ccccc1-2,TGI,786-0 renal,> 100 µM
same,TGI,A498 renal,> 100 µM
same,TGI,A549 NSCLC,> 100 µM
same,TGI,ACHN renal,> 100 µM
same,TGI,CCRF-CEM leukemia,> 100 µM
same,TGI,COLO 205 colon,> 100 µM
same,TGI,DLD-1 colon,> 100 µM
same,TGI,DMS 114 small cell lung,> 100 µM
same,TGI,DMS 273 small cell lung,> 100 µM
same,TGI,EKVX NSCLC,> 100 µM
same,TGI,HCC-2998 colon,> 100 µM
same,TGI,HCT-116 colon,> 100 µM
same,TGI,HL-60(TB) leukemia,> 100 µM
same,TGI,HOP-18 NSCLC,83.9 µM
same,TGI,HOP-62 NSCLC,> 100 µM
same,TGI,HOP-92 NSCLC,71.9 µM
same,TGI,HT29 colon,> 100 µM
same,TGI,K-562 leukemia,> 100 µM
same,TGI,KM12 colon,> 100 µM
same,TGI,KM20L2 colon,> 100 µM
same,TGI,LOX IMVI melanoma,> 100 µM
same,TGI,LXFL 529 NSCLC,> 100 µM
same,TGI,M14 melanoma,> 100 µM
same,TGI,M19-MEL melanoma,> 100 µM
same,TGI,MALME-3M melanoma,> 100 µM
same,TGI,MOLT-4 leukemia,> 100 µM
same,TGI,NCI-H226 lung,> 100 µM
same,TGI,NCI-H23 lung,> 100 µM
same,TGI,NCI-H522 lung,> 100 µM
same,TGI,OVCAR-3 ovarian,84 µM
same,TGI,OVCAR-5 ovarian,> 100 µM
same,TGI,OVCAR-8 ovarian,> 100 µM
same,TGI,RPMI-8226 leukemia,> 100 µM
same,TGI,RXF 393 renal,66.9 µM
same,TGI,SF-268 CNS,> 100 µM
same,TGI,SF-295 CNS,> 100 µM
same,TGI,SF-539 CNS,85.5 µM
same,TGI,SK-MEL-2 melanoma,97.1 µM
same,TGI,SK-MEL-28 melanoma,> 100 µM
same,TGI,SK-OV-3 ovarian,94.8 µM
same,TGI,SN12C renal,> 100 µM
same,TGI,SNB-19 CNS,> 100 µM
same,TGI,SNB-75 CNS,> 100 µM
same,TGI,SNB-78 CNS,> 100 µM
same,TGI,SR leukemia,> 100 µM
same,TGI,SW-620 colon,> 100 µM
same,TGI,TK-10 renal,> 100 µM
same,TGI,U251 CNS,> 100 µM
same,TGI,UACC-257 melanoma,> 100 µM
same,TGI,UACC-62 melanoma,65.9 µM
same,TGI,UO-31 renal,> 100 µM
same,TGI,XF 498 CNS,> 100 µM
COc1cc2c(c(OC)c1OC)-c1ccc(SC)c(=O)cc1[C@@H](NC(=O)c1ccc(OC(C)=O)cc1)CC2,TGI,786-0 renal,12.9 µM
same,TGI,A498 renal,0.0779 µM and 0.0202 µM
same,TGI,A549 NSCLC,> 100 µM
same,TGI,ACHN renal,> 100 µM
same,TGI,CAKI-1 renal,> 100 µM
same,TGI,CCRF-CEM leukemia,> 100 µM
same,TGI,COLO 205 colon,0.0405 µM
same,TGI,DLD-1 colon,28.8 µM
same,GI50,DMS 114 small cell lung,0.0144 µM
same,TGI,DMS 114 small cell lung,0.0336 µM
same,TGI,DMS 273 small cell lung,> 100 µM
same,TGI,EKVX NSCLC,> 100 µM
same,TGI,HCC-2998 colon,0.0549 µM
same,TGI,HCT-116 colon,0.0514 µM and 0.015 µM
same,TGI,HL-60(TB) leukemia,20.5 µM
same,GI50,HOP-62 NSCLC,0.0126 µM
same,TGI,HOP-62 NSCLC,22.2 µM
same,TGI,HOP-92 NSCLC,0.0311 µM
same,TGI,HT29 colon,0.0653 µM
same,TGI,IGROV1 ovarian,> 100 µM
same,TGI,K-562 leukemia,6.03 µM
same,TGI,KM12 colon,0.0407 µM
same,TGI,KM20L2 colon,0.0358 µM
same,TGI,LOX IMVI melanoma,0.0539 µM
same,TGI,M19-MEL melanoma,> 100 µM
same,TGI,MOLT-4 leukemia,> 100 µM
same,TGI,NCI-H226 lung,0.0528 µM
same,TGI,NCI-H23 lung,0.049 µM
same,TGI,NCI-H460 lung,0.0206 µM
same,TGI,OVCAR-3 ovarian,0.034 µM
same,GI50,OVCAR-4 ovarian,10.6 µM
same,TGI,OVCAR-4 ovarian,23.1 µM
same,TGI,OVCAR-5 ovarian,65.5 µM
same,TGI,OVCAR-8 ovarian,12.1 µM
same,TGI,RXF 393 renal,0.0813 µM
same,TGI,RXF-631 renal,18.1 µM
same,TGI,SF-268 CNS,24.8 µM
same,TGI,SF-539 CNS,0.0357 µM
same,GI50,SK-MEL-28 melanoma,15 µM
same,TGI,SK-MEL-28 melanoma,60 µM
same,GI50,SK-MEL-5 melanoma,0.0196 µM
same,TGI,SK-OV-3 ovarian,0.0683 µM and 0.0201 µM
same,TGI,SN12C renal,18.8 µM
same,GI50,SNB-19 CNS,0.0214 µM
same,GI50,SR leukemia,0.00773 µM
same,TGI,SR leukemia,23.9 µM
same,TGI,SW-620 colon,31 µM
same,GI50,TK-10 renal,0.0113 µM
same,TGI,TK-10 renal,33.4 µM
same,TGI,U251 CNS,0.0544 µM
same,TGI,UACC-257 melanoma,19.2 µM
same,TGI,UACC-62 melanoma,26.9 µM
same,TGI,UO-31 renal,73 µM
same,TGI,XF 498 CNS,0.0597 µM
Cn1nc(-c2ccccc2)c(N=[N+]=[N-])cc1=O,TGI,786-0 renal,> 100 µM
same,TGI,A498 renal,> 100 µM
same,TGI,A549 NSCLC,> 100 µM
same,TGI,ACHN renal,> 100 µM
same,TGI,CAKI-1 renal,> 100 µM
same,TGI,CCRF-CEM leukemia,> 100 µM
same,TGI,COLO 205 colon,> 100 µM
same,TGI,DMS 114 small cell lung,> 100 µM
same,TGI,DMS 273 small cell lung,> 100 µM
same,TGI,EKVX NSCLC,> 100 µM
same,TGI,HCC-2998 colon,> 100 µM
same,TGI,HCT-116 colon,> 100 µM
same,TGI,HCT-15 colon,> 100 µM
same,TGI,HL-60(TB) leukemia,> 100 µM
same,TGI,HOP-62 NSCLC,> 100 µM
same,TGI,HT29 colon,> 100 µM
same,TGI,IGROV1 ovarian,> 100 µM
same,TGI,K-562 leukemia,> 100 µM
same,TGI,KM12 colon,> 100 µM
same,TGI,KM20L2 colon,> 100 µM
same,TGI,LOX IMVI melanoma,> 100 µM
same,TGI,LXFL 529 NSCLC,> 100 µM
same,TGI,M14 melanoma,> 100 µM
same,TGI,M19-MEL melanoma,> 100 µM
same,TGI,MALME-3M melanoma,> 100 µM
same,TGI,MOLT-4 leukemia,> 100 µM
same,TGI,NCI-H226 lung,> 100 µM
same,TGI,NCI-H23 lung,> 100 µM
same,TGI,NCI-H460 lung,> 100 µM
same,TGI,NCI-H522 lung,> 100 µM
same,TGI,OVCAR-3 ovarian,> 100 µM
same,TGI,OVCAR-4 ovarian,> 100 µM
same,TGI,OVCAR-5 ovarian,> 100 µM
same,TGI,OVCAR-8 ovarian,> 100 µM
same,TGI,RPMI-8226 leukemia,> 100 µM
same,TGI,RXF 393 renal,> 100 µM
same,TGI,SF-268 CNS,> 100 µM
same,TGI,SF-295 CNS,> 100 µM
same,TGI,SF-539 CNS,> 100 µM
same,TGI,SK-MEL-28 melanoma,> 100 µM
same,TGI,SK-MEL-5 melanoma,> 100 µM
same,TGI,SK-OV-3 ovarian,> 100 µM
same,TGI,SN12C renal,> 100 µM
same,TGI,SNB-19 CNS,> 100 µM
same,TGI,SR leukemia,> 100 µM
same,TGI,SW-620 colon,> 100 µM
same,TGI,TK-10 renal,> 100 µM
same,TGI,U251 CNS,> 100 µM
same,TGI,UACC-257 melanoma,> 100 µM
same,TGI,UACC-62 melanoma,> 100 µM
same,TGI,UO-31 renal,> 100 µM
same,TGI,XF 498 CNS,> 100 µM
